What is called EC50 is the concentration at which the effect is half-maximal. The low end stands for greater potency, the high end for weaker potency.

Structures are written as SMILES.

The assay has as its target T1, Sodium- and chloride-dependent creatine transporter 1 (Homo sapiens, UniProt P48029).
T1 sequence (P48029 whole entry): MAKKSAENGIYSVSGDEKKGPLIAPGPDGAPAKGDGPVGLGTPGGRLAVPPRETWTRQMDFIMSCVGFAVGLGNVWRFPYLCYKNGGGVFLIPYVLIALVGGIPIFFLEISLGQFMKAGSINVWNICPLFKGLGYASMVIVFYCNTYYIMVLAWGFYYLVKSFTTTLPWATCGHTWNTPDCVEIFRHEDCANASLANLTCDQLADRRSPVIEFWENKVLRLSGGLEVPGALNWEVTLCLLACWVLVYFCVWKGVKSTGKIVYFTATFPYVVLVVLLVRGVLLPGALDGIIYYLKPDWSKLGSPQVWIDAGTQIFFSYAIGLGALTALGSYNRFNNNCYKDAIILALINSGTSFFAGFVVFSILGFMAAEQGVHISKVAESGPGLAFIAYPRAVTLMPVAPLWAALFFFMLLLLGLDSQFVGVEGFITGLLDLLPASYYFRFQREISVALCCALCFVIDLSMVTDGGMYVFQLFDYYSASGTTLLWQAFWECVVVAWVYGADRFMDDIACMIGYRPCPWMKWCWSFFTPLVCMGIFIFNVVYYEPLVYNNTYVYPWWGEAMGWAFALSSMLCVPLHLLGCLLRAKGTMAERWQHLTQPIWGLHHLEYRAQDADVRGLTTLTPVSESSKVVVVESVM
Put plainly: Substrate uptake by the Sodium- and Chloride-Dependent Creatine Transporter 1 (CRTR, SLC6A8) as assessed by the fluorescent FLIPR membrane potential dye in HEK-293 JumpIN-SLC6A8 cells (PubChem AID: 1794823). The assay is classed as functional, cell-based, HEK293.

Consider `CN(CC(=O)O)C(=N)N` [CREATINE], for which the EC50 was determined as 5 µM.

The record behind these values is ChEMBL document CHEMBL5209569, “Membrane potential based assay for SLC6A8 using HEK-293 JumpIN SLC6A8 OE cells” (2022).
